Assay results from PMC7902086 (Toxicology letters, 2019).
pIC50: −log10 of the molar value. Values joined by “and” are separate entries in the source; they are usually repeats but may differ in a detail not shown here. Equal values may be shown once.

Experiments:
CYP2D6 = CYP2D6 (Homo sapiens, UniProt P10635); settings: known CYP2D6 substrates; ref Obach et al., 2006; cited from earlier work
CYP3A4/5 [1] = assay: CYP450 inhibition assay, midazolam 1′-hydroxylase in human liver microsomes; format: in vitro ADME; settings: read-out: IC50, CYP3A4/5 Midazolam 1′-hydroxylase; human liver microsomes 0.1 mg/mL; mean of triplicate
CYP2C19 = CYP2C19 (Homo sapiens, UniProt P33261); assay: CYP450 inhibition assay, S-mephenytoin 4′-hydroxylase in human liver microsomes; format: in vitro ADME; settings: read-out: IC50, CYP2C19 S-Mephenytoin 4′-hydroxylase; human liver microsomes 0.1 mg/mL; mean of triplicate
Chain of CYP2C19 (P33261 whole entry): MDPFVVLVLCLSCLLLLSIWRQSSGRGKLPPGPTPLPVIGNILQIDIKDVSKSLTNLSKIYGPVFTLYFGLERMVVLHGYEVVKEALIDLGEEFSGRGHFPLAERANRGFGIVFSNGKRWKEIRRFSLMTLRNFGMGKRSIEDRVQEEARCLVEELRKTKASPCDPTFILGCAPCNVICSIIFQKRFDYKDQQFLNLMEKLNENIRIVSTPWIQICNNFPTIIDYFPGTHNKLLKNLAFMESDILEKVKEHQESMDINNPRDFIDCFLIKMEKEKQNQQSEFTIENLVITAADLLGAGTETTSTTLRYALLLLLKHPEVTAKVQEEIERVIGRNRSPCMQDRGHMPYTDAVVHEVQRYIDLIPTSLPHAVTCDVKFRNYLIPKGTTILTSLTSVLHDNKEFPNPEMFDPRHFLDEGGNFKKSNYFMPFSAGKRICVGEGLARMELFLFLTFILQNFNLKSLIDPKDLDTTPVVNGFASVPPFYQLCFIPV

CYP3A4/5 [2] = assay: CYP450 inhibition assay, testosterone 6β-hydroxylase in human liver microsomes; format: in vitro ADME; settings: read-out: IC50, CYP3A4/5 Testosterone 6β-hydroxylase; human liver microsomes 0.1 mg/mL; mean of triplicate
μ-opioid receptors = settings: ref Boyer et al., 2008; Kruegel et al., 2016; cited from earlier work
CYP3A4 = settings: in humans; ref Kamble et al., 2019; cited from earlier work
[3] = deceased kratom users in the United States, autopsies; ref Gershman et al., 2019; cited from earlier work

Chain of CYP2D6 (P10635 whole entry): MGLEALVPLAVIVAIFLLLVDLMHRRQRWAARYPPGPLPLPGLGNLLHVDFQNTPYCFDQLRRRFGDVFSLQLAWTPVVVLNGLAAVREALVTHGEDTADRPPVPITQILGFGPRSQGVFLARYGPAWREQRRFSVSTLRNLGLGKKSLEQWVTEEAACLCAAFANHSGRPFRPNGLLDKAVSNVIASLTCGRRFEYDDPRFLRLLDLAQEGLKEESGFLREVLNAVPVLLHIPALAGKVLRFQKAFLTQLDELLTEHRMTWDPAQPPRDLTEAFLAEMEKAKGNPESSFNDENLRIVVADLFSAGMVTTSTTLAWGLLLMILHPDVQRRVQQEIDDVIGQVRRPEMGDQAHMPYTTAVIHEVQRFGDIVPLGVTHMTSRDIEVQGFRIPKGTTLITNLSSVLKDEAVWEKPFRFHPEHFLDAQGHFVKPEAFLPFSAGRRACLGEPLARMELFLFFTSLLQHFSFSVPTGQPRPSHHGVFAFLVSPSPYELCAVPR

Question: Which “fm, CYP2D6” value (CYP2D6) does the source give for `COCCc1ccc(OCC(O)CNC(C)C)cc1` (stereo not shown) [metoprolol] here?
Answer: The value was 0.8.

Question: With `CC[C@@H]1CN2CCc3c([nH]c4cccc(OC)c34)[C@H]2C[C@@H]1/C(=C\OC)C(=O)OC` [SPC, speciocilliatine] as the compound, how does the pIC50 (CYP3A4/5 [1]) read?
Answer: The pIC50 was 4.58.

Question: And the pIC50 (CYP2C19)?
Answer: Its pIC50 is 5.10.

Question: What about the pIC50 (CYP3A4/5 [2]) of the same compound?
Answer: The pIC50 was less than 4.35.

Question: With `CC[C@@H]1CN2CC[C@@]3(O)C(=Nc4cccc(OC)c43)[C@@H]2C[C@@H]1/C(=C\OC)C(=O)OC` [7HMG, 7-hydroxymitragynine] as the compound, how does the pIC50 (CYP3A4/5 [1]) read?
Answer: Its pIC50 is less than 4.35.

Question: And the pIC50 (CYP2C19)?
Answer: The pIC50 was 4.56.

Question: And the “activity at μ-opioid receptors” value (μ-opioid receptors)?
Answer: The value was “partial agonists”.

Question: What about the pIC50 (CYP3A4/5 [2]) of the same compound?
Answer: Its pIC50 is less than 4.35.

Question: With `CC[C@H]1CN2CCc3c([nH]c4cccc(OC)c34)[C@@H]2C[C@@H]1/C(=C\OC)C(=O)OC` [SPG, speciogynine] as the compound, how does the pIC50 (CYP3A4/5 [1]) read?
Answer: Its pIC50 is 4.87.

Question: What about the pIC50 (CYP2C19) of the same compound?
Answer: Its pIC50 is 4.71.

Question: What about the pIC50 (CYP3A4/5 [2]) of the same compound?
Answer: Its pIC50 is less than 4.35.

Question: With `CNCCCN1c2ccccc2CCc2ccccc21` [desipramine] as the compound, how does the “fm, CYP2D6” value (CYP2D6) read?
Answer: Its value is 0.9.

Question: Which “enzyme predominantly responsible for metabolism” value (CYP3A4) does the source give for mitragynine [MTG] here?
Answer: The value was “predominantly metabolized by CYP3A4”.

Question: And the serum concentration levels [3]?
Answer: The serum concentration levels was 16 to 4800 ng/mL and 0.041–12.05 μM.

Question: And the “activity at μ-opioid receptors” value (μ-opioid receptors)?
Answer: Its value is “partial agonists”.

Question: With `C=C[C@H]1CN2CCc3c([nH]c4cccc(OC)c34)[C@@H]2C[C@@H]1/C(=C\OC)C(=O)OC` [PAY, paynantheine] as the compound, how does the pIC50 (CYP3A4/5 [1]) read?
Answer: The pIC50 was 5.10.

Question: And the pIC50 (CYP2C19)?
Answer: The pIC50 was 4.42.

Question: What about the pIC50 (CYP3A4/5 [2]) of the same compound?
Answer: The pIC50 was less than 4.35.

Question: With `COc1ccc2c(c1)[C@]13CCCC[C@@H]1[C@H](C2)N(C)CC3` [dextromethorphan] as the compound, how does the “fm, CYP2D6” value (CYP2D6) read?
Answer: Its value is 1.
